This is an account of results in patent US6506790B1, “Compounds and methods” (SmithKline Beecham Corporation, priority 1999, dated 2003).

By melting point is commonly meant the temperature, or range, at which the solid turns liquid.

With `CNC1CC(C)(C)Oc2cc3c(cc21)C(c1cccc(Cl)c1)CC(C)(C)O3` (stereo not shown) [Example 4, 6-(3-chlorophenyl)-3,4,7,8-tetrahydro-N-methyl-2,2,8,8-tetramethyl-2H,6H-benzo[1,2-b:5,4-b′]dipyran-4-amine], the melting point was 190 to 192 °C.
